Legend:
[1] = system: RT-112; assay: cells; type: functional, cell-based; settings: Homo sapiens
Description: SANGER: Inhibition of human RT-112 cell growth in a cell viability assay.

[2] = system: LB373-MEL-D; assay: cells; type: functional, cell-based, Homo sapiens; settings: Homo sapiens, LB373-MEL-D;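 also: growth inhibition of the cell line, read out in a cell viability assay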
Description: SANGER: Inhibition of human LB373-MEL-D cell growth in a cell viability assay.

[3] = system: DG-75; assay: cells; type: functional, cell-based, Homo sapiens; settings: Homo sapiens, DG-75;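 also: growth inhibition of DG-75 cells, read out with a cell viability assay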
Description: SANGER: Inhibition of human DG-75 cell growth in a cell viability assay.

[4] = system: MIA PaCa-2; assay: cells; type: functional, cell-based; settings: Homo sapiens;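 also: growth inhibition of MIA PaCa-2 cells, read out with a cell viability assay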
Description: SANGER: Inhibition of human MIA-PaCa-2 cell growth in a cell viability assay.

[5] = system: BL-41; assay: cells; type: functional, cell-based; settings: Homo sapiens;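 also: growth inhibition of human BL-41 cells, read out with a cell viability assay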
Description: SANGER: Inhibition of human BL-41 cell growth in a cell viability assay.

[6] = system: MC-CAR; assay: cells; type: functional, cell-based, Homo sapiens; settings: Homo sapiens, MC-CAR;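 also: growth inhibition of the human MC-CAR cell line, read out by a cell viability assay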
Description: SANGER: Inhibition of human MC-CAR cell growth in a cell viability assay.

[7] = system: 23132-87; assay: cells; type: functional, cell-based; settings: Homo sapiens
Description: SANGER: Inhibition of human 23132-87 cell growth in a cell viability assay.

[8] = system: H4; assay: cells; type: functional, cell-based; settings: Homo sapiens
Description: SANGER: Inhibition of human H4 cell growth in a cell viability assay.

[9] = system: SNU-423; assay: cells; type: functional, cell-based; settings: Homo sapiens
Description: SANGER: Inhibition of human SNU-423 cell growth in a cell viability assay.

[10] = system: HT-1080; assay: cells; type: functional, cell-based; settings: Homo sapiens
Description: SANGER: Inhibition of human HT-1080 cell growth in a cell viability assay.

[11] = system: COR-L23; assay: cells; type: functional, cell-based; settings: Homo sapiens;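 also: cell viability assay measuring how strongly compounds suppress growth of COR-L23 cells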
Description: SANGER: Inhibition of human COR-L23 cell growth in a cell viability assay.

[12] = system: SW13; assay: cells; type: functional, cell-based; settings: Homo sapiens;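 also: IC50 is inhibition of SW13 cell growth, read out with a cell viability assay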
Description: SANGER: Inhibition of human SW13 cell growth in a cell viability assay.

[13] = system: A2058; assay: cells; type: functional, cell-based; settings: Homo sapiens;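 also: reduction of A2058 cell growth, read out with a viability assay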
Description: SANGER: Inhibition of human A2058 cell growth in a cell viability assay.

[14] = system: A2780; assay: cells; type: functional, cell-based; settings: Homo sapiens;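 also: growth inhibition of A2780 cells, read out with a cell viability assay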
Description: SANGER: Inhibition of human A2780 cell growth in a cell viability assay.

[15] = system: NCI-H1417; assay: cells; type: functional, cell-based, Homo sapiens; settings: Homo sapiens, NCI-H1417;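 also: human NCI-H1417 cells, growth inhibition determined with a cell viability readout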
Description: SANGER: Inhibition of human NCI-H1417 cell growth in a cell viability assay.

[16] = system: HT55; assay: cells; type: functional, cell-based; settings: Homo sapiens;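 also: cell viability readout measuring growth inhibition of human HT55 cells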
Description: SANGER: Inhibition of human HT55 cell growth in a cell viability assay.

[17] = system: NCI-H441; assay: cells; type: functional, cell-based; settings: Homo sapiens;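 also: growth inhibition of NCI-H441 cells, read out with a cell viability assay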
Description: SANGER: Inhibition of human NCI-H441 cell growth in a cell viability assay.

[18] = system: TCC-SUP; assay: cells; type: functional, cell-based; settings: Homo sapiens;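 also: growth inhibition of TCC-SUP cells, read out with a cell viability assay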
Description: SANGER: Inhibition of human TCCSUP cell growth in a cell viability assay.

[19] = system: NCI-H2347; assay: cells; type: functional, cell-based; settings: Homo sapiens;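 also: growth inhibition of the cell line, read out with a cell viability assay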
Description: SANGER: Inhibition of human NCI-H2347 cell growth in a cell viability assay.

[20] = system: SW948; assay: cells; type: functional, cell-based; settings: Homo sapiens;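 also: growth inhibition of SW948 cells, read out with a cell viability assay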
Description: SANGER: Inhibition of human SW948 cell growth in a cell viability assay.

[21] = system: UMUC3; assay: cells; type: functional, cell-based; settings: Homo sapiens;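 also: growth inhibition of human UM-UC-3 cells, read out with a cell viability assay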
Description: SANGER: Inhibition of human UM-UC-3 cell growth in a cell viability assay.

[22] = system: SK-MES-1; assay: cells; type: functional, cell-based; settings: Homo sapiens;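 also: growth inhibition of human SK-MES-1 cells, read out with a cell viability assay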
Description: SANGER: Inhibition of human SK-MES-1 cell growth in a cell viability assay.

[23] = system: A 172; assay: cells; type: functional, cell-based; settings: Homo sapiens;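 also: growth inhibition of A172 cells, measured with a cell viability readout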
Description: SANGER: Inhibition of human A172 cell growth in a cell viability assay.

[24] = system: CAL-12T; assay: cells; type: functional, cell-based; settings: Homo sapiens;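 also: growth inhibition of human CAL-12T cells, read out with a cell viability assay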
Description: SANGER: Inhibition of human CAL-12T cell growth in a cell viability assay.

[25] = system: SW1463; assay: cells; type: functional, cell-based; settings: Homo sapiens;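 also: growth inhibition of SW1463 cells, determined with a cell viability assay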
Description: SANGER: Inhibition of human SW1463 cell growth in a cell viability assay.

[26] = system: CWR22R; assay: cells; type: functional, cell-based; settings: Homo sapiens, 22Rv1;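 also: growth inhibition of 22Rv1 cells, read out with a cell viability assay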
Description: SANGER: Inhibition of human 22RV1 cell growth in a cell viability assay.

[27] = system: NCI-H2141; assay: cells; type: functional, cell-based, Homo sapiens; settings: Homo sapiens, NCI-H2141;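 also: growth inhibition of human NCI-H2141 cells, read out with a cell viability assay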
Description: SANGER: Inhibition of human NCI-H2141 cell growth in a cell viability assay.

[28] = system: NCI-H2228; assay: cells; type: functional, cell-based; settings: Homo sapiens;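 also: growth inhibition of human NCI-H2228 cells, read out by a cell viability assay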
Description: SANGER: Inhibition of human NCI-H2228 cell growth in a cell viability assay.

[29] = system: SW837; assay: cells; type: functional, cell-based; settings: Homo sapiens;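 also: growth inhibition of SW837 cells, determined with a cell viability assay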
Description: SANGER: Inhibition of human SW837 cell growth in a cell viability assay.

[30] = system: EB2; assay: cells; type: functional, cell-based, Homo sapiens; settings: Homo sapiens, EB2;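 also: growth inhibition of EB2 cells, read out with a cell viability assay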
Description: SANGER: Inhibition of human EB2 cell growth in a cell viability assay.

[31] = system: NCI-H292; assay: cells; type: functional, cell-based; settings: Homo sapiens;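 also: growth inhibition of NCI-H292 cells, read out with a cell viability assay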
Description: SANGER: Inhibition of human NCI-H292 cell growth in a cell viability assay.

[32] = system: VMRC-RCZ; assay: cells; type: functional, cell-based; settings: Homo sapiens
Description: SANGER: Inhibition of human VMRC-RCZ cell growth in a cell viability assay.

[33] = system: ST486; assay: SANGER: Inhibition of human ST486 cell growth in a cell viability assay.; type: functional, cell-based; settings: Homo sapiens, ST486
[34] = system: DMS-79; assay: cells; type: functional, cell-based, Homo sapiens; settings: Homo sapiens, DMS-79
Description: SANGER: Inhibition of human DMS-79 cell growth in a cell viability assay.

[35] = system: NCI-H1522; assay: cells; type: functional, cell-based, Homo sapiens; settings: Homo sapiens, NCI-H1522;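 also: growth inhibition of NCI-H1522 cells, read out with a cell viability assay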
Description: SANGER: Inhibition of human NCI-H1522 cell growth in a cell viability assay.

[36] = system: 769-P; assay: cells; type: functional, cell-based; settings: Homo sapiens
Description: SANGER: Inhibition of human 769-P cell growth in a cell viability assay.

[37] = system: LU-99A; assay: cells; type: functional, cell-based; settings: Homo sapiens;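 also: growth inhibition of LU-99A cells, read out with a cell viability assay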
Description: SANGER: Inhibition of human LU-99A cell growth in a cell viability assay.

[38] = system: OAW-28; assay: cells; type: functional, cell-based; settings: Homo sapiens;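 also: growth inhibition of OAW-28 cells, read out with a cell viability assay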
Description: SANGER: Inhibition of human OAW-28 cell growth in a cell viability assay.

[39] = system: Ca-Ski; assay: cells; type: functional, cell-based; settings: Homo sapiens;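 also: cell viability assay measuring inhibition of Ca-Ski cell growth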
Description: SANGER: Inhibition of human Ca-Ski cell growth in a cell viability assay.

[40] = system: CAL-39; assay: cells; type: functional, cell-based; settings: Homo sapiens;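 also: cell viability assay measuring growth inhibition of CAL-39 cells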
Description: SANGER: Inhibition of human CAL-39 cell growth in a cell viability assay.

[41] = system: CAL-72; assay: cells; type: functional, cell-based; settings: Homo sapiens;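 also: cell viability assay measuring inhibition of proliferation in the CAL-72 cell line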
Description: SANGER: Inhibition of human CAL-72 cell growth in a cell viability assay.

[42] = system: DBTRG-05MG; assay: cells; type: functional, cell-based; settings: Homo sapiens;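 also: cell viability assay measuring growth inhibition of human DBTRG-05MG cells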
Description: SANGER: Inhibition of human DBTRG-05MG cell growth in a cell viability assay.

[43] = system: HT-3; assay: cells; type: functional, cell-based; settings: Homo sapiens;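 also: growth inhibition measured with a cell viability readout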
Description: SANGER: Inhibition of human HT-3 cell growth in a cell viability assay.

[44] = system: SW780; assay: cells; type: functional, cell-based; settings: Homo sapiens;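 also: growth inhibition of the cells, read out with a cell viability assay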
Description: SANGER: Inhibition of human SW780 cell growth in a cell viability assay.

[45] = system: HCT-116; assay: cells; type: functional, cell-based; settings: Homo sapiens
Description: SANGER: Inhibition of human HCT-116 cell growth in a cell viability assay.

[46] = system: CAL-54; assay: cells; type: functional, cell-based; settings: Homo sapiens;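 also: growth inhibition of CAL-54 cells, read out by a viability measurement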
Description: SANGER: Inhibition of human CAL-54 cell growth in a cell viability assay.

[47] = system: SKG-IIIa; assay: cells; type: functional, cell-based; settings: Homo sapiens;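 also: cell growth inhibition, read out with a cell viability assay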
Description: SANGER: Inhibition of human SKG-IIIa cell growth in a cell viability assay.

[48] = system: LCLC-97TM1; assay: cells; type: functional, cell-based; settings: Homo sapiens;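 also: cell viability assay measuring growth inhibition of human LCLC-97TM1 cells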
Description: SANGER: Inhibition of human LCLC-97TM1 cell growth in a cell viability assay.

[49] = system: CaR-1; assay: cells; type: functional, cell-based; settings: Homo sapiens;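 also: growth inhibition of human CaR-1 cancer cells, read out with a cell viability assay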
Description: SANGER: Inhibition of human CaR-1 cell growth in a cell viability assay.

[50] = system: OVCAR-3; assay: cells; type: functional, cell-based; settings: Homo sapiens;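 also: growth inhibition of human OVCAR-3 cells, determined by a cell viability assay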
Description: SANGER: Inhibition of human OVCAR-3 cell growth in a cell viability assay.

[51] = system: Hs-578T; assay: cells; type: functional, cell-based; settings: Homo sapiens
Description: SANGER: Inhibition of human Hs-578-T cell growth in a cell viability assay.

[52] = system: TE-15; assay: cells; type: functional, cell-based, Homo sapiens; settings: Homo sapiens, TE-15;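 also: cell viability readout of growth inhibition in TE-15 cells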
Description: SANGER: Inhibition of human TE-15 cell growth in a cell viability assay.

[53] = system: LOUCY; assay: cells; type: functional, cell-based, Homo sapiens; settings: Homo sapiens, LOUCY;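 also: growth inhibition of human LOUCY cells, read out with a cell viability assay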
Description: SANGER: Inhibition of human LOUCY cell growth in a cell viability assay.

[54] = system: MCF7; assay: cells; type: functional, cell-based; settings: Homo sapiens;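 also: growth inhibition of human MCF7 cells, read out with a cell viability assay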
Description: SANGER: Inhibition of human MCF7 cell growth in a cell viability assay.

[55] = system: RPMI-2650; assay: cells; type: functional, cell-based; settings: Homo sapiens
Description: SANGER: Inhibition of human RPMI-2650 cell growth in a cell viability assay.

[56] = system: LC4-1; assay: cells; type: functional, cell-based, Homo sapiens; settings: Homo sapiens, LC4-1;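 also: growth inhibition of LC4-1 cells, read out with a cell viability assay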
Description: SANGER: Inhibition of human LC4-1 cell growth in a cell viability assay.

[57] = system: TUR; assay: cells; type: functional, cell-based, Homo sapiens; settings: Homo sapiens, TUR;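 also: growth inhibition of human TUR cells, read out with a cell viability assay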
Description: SANGER: Inhibition of human TUR cell growth in a cell viability assay.

[58] = system: NCI-H358; assay: cells; type: functional, cell-based; settings: Homo sapiens;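 also: growth inhibition of NCI-H358 human cells, read out with a cell viability assay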
Description: SANGER: Inhibition of human NCI-H358 cell growth in a cell viability assay.

[59] = system: PF-382; assay: cells; type: functional, cell-based, Homo sapiens; settings: Homo sapiens, PF-382
Description: SANGER: Inhibition of human PF-382 cell growth in a cell viability assay.

[60] = system: BL-70; assay: SANGER: Inhibition of human BL-70 cell growth in a cell viability assay.; type: functional, cell-based; settings: Homo sapiens, BL-70

For `COc1ccc(-c2cc3nccn3c(Nc3ncccc3C(N)=O)n2)cc1OC`, the IC50 [1] was > 8 µM, the IC50 [2] was > 8 µM and the IC50 [3] was > 8 µM. For the same compound, the IC50 [4] was 5.4 µM, the IC50 [5] was 1.39 µM and the IC50 [6] was 1.14 µM. For the same compound, the IC50 [7] was > 8 µM, the IC50 [8] was > 8 µM and the IC50 [9] was > 8 µM. The IC50 [10] was 3.23 µM, the IC50 [11] was 2.38 µM and the IC50 [12] was > 8 µM. For the same compound, the IC50 [13] was > 8 µM, the IC50 [14] was 1.53 µM and the IC50 [15] was > 8 µM. For the same compound, the IC50 [16] was > 8 µM, the IC50 [17] was 5.65 µM and the IC50 [18] was > 8 µM. The IC50 [19] was > 8 µM, the IC50 [20] was > 8 µM and the IC50 [21] was 7.41 µM. It also gave an IC50 [22] of 1.81 µM, an IC50 [23] of 2.22 µM and an IC50 [24] of 0.496 µM. For the same compound, the IC50 [25] was > 8 µM, the IC50 [26] was > 8 µM and the IC50 [27] was > 8 µM. It also gave an IC50 [28] of 4.34 µM, an IC50 [29] of 3.54 µM and an IC50 [30] of 0.837 µM. For the same compound, the IC50 [31] was > 8 µM, the IC50 [32] was 5.58 µM and the IC50 [33] was 0.576 µM. The IC50 [34] was > 8 µM, the IC50 [35] was > 8 µM and the IC50 [36] was 0.98 µM. For the same compound, the IC50 [37] was > 8 µM, the IC50 [38] was > 8 µM and the IC50 [39] was 4.55 µM. The IC50 [40] was 3.57 µM, the IC50 [41] was > 8 µM and the IC50 [42] was > 8 µM. For the same compound, the IC50 [43] was > 8 µM, the IC50 [44] was > 8 µM and the IC50 [45] was 3.98 µM. The IC50 [46] was > 8 µM, the IC50 [47] was > 8 µM and the IC50 [48] was 0.57 µM. For the same compound, the IC50 [49] was > 8 µM, the IC50 [50] was > 8 µM and the IC50 [51] was > 8 µM. It also gave an IC50 [52] of 1.28 µM, an IC50 [53] of 3.65 µM and an IC50 [54] of 1.15 µM. For the same compound, the IC50 [55] was 0.696 µM, the IC50 [56] was 5.98 µM and the IC50 [57] was 2.57 µM. For the same compound, the IC50 [58] was 0.689 µM, the IC50 [59] was 2.41 µM and the IC50 [60] was 0.671 µM.

For `CCCCCCCCCCCC1=C(O)C(=O)C=C(O)C1=O` [EMBELIN], the IC50 [1] was 12.6 µM, the IC50 [2] was 24.2 µM and the IC50 [3] was > 32 µM. It also gave an IC50 [4] of 4.7 µM, an IC50 [5] of 5.5 µM and an IC50 [6] of 4.58 µM. The IC50 [7] was 23.3 µM, the IC50 [8] was 4.13 µM and the IC50 [9] was > 32 µM. For the same compound, the IC50 [10] was 4.76 µM, the IC50 [11] was 9.63 µM and the IC50 [12] was 12.6 µM. For the same compound, the IC50 [13] was 2.32 µM, the IC50 [14] was 13.2 µM and the IC50 [15] was > 32 µM. The IC50 [16] was > 32 µM, the IC50 [17] was 6.01 µM and the IC50 [18] was 11.6 µM. For the same compound, the IC50 [19] was 7.48 µM, the IC50 [20] was > 32 µM and the IC50 [21] was 10.1 µM. It also gave an IC50 [22] of 5.01 µM, an IC50 [23] of 8.78 µM and an IC50 [24] of 9.73 µM. The IC50 [25] was > 32 µM, the IC50 [26] was 22.5 µM and the IC50 [27] was 26.8 µM. The IC50 [28] was > 32 µM, the IC50 [29] was 18 µM and the IC50 [30] was 6.17 µM. It also gave an IC50 [31] of 29.4 µM, an IC50 [32] of 9.47 µM and an IC50 [33] of 8.3 µM. For the same compound, the IC50 [34] was > 32 µM, the IC50 [35] was 30.6 µM and the IC50 [36] was 8.47 µM. The IC50 [37] was > 32 µM, the IC50 [38] was 20 µM and the IC50 [39] was 18.2 µM. The IC50 [40] was 4.48 µM, the IC50 [41] was 10.4 µM and the IC50 [42] was 15.4 µM. For the same compound, the IC50 [43] was 27.6 µM, the IC50 [44] was > 32 µM and the IC50 [45] was 28.5 µM. The IC50 [46] was 20.4 µM, the IC50 [47] was > 32 µM and the IC50 [48] was 5.96 µM. The IC50 [49] was > 32 µM, the IC50 [50] was 23.6 µM and the IC50 [51] was 11.1 µM. For the same compound, the IC50 [52] was 7.24 µM, the IC50 [53] was 5.1 µM and the IC50 [54] was 8.35 µM. The IC50 [55] was 7.32 µM, the IC50 [56] was > 32 µM and the IC50 [57] was > 32 µM. It also gave an IC50 [58] of 11.1 µM, an IC50 [59] of 6.17 µM and an IC50 [60] of 5.83 µM.

Reference: ChEMBL document CHEMBL1201861, “Genomics of Drug Sensitity in Cancer screening data, Wellcome Trust Sanger Institute”
